Here are results for nine molecules from paper PMC4291147, “Molecular Basis of Histone Tail Recognition by Human TIP5 PHD Finger and Bromodomain of the Chromatin Remodeling Complex NoRC” (Structure(London, England:1993), 2015).

As a reminder, the Kd is the constant that tells how readily two partners part at equilibrium.

Where no end group is shown, it is not given here.

One test deals with T1, TIP5 BRD (Homo sapiens, UniProt Q9UIF9).
T1 construct: (residues 1797- 1899 for TIP5, residues); hexa-histidine (pNIC28-Bsa4, TEV site) (N, cleaved yes); made in house; host or cells: E. coli BL21(DE3) Rosetta or BL21(DE3)-R3-pRARE2
T1 sequence (Q9UIF9 1797-1899): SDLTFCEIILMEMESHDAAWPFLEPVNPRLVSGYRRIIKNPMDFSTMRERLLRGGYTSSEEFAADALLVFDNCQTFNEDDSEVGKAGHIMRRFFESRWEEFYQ
The experiment in a line: ITC, histone peptide binding to TIP5 BRD. The note with it: 20 mM HEPES (pH 7.5–8), 150 mM NaCl, 0.5 mM TCEP, 293 or 298 K. The protocol:
All calorimetric experiments were performed on an ITC200 or VP-ITC microcalorimeters (MicroCal). […] The data were analyzed with the MicroCal ORIGIN software package using, in most cases, a single binding site model. The first data point was excluded from the analysis. […]
(§1) The cDNAs encoding tandem PHD zinc finger and bromodomain of human TIP5 […]
GeneBank: Q9UIF8) were synthesized by GenScript with codons optimized f or E. coli. expression and were subcloned into a modif ied pET15 vector using NdeI/XhoI sites f or expression as recombinant proteins with a His6 tag fused with small ubiquitin like modifier (SUMO)-1 fusion tag at the N terminus. cDNA sequences were used as a […]
Single PHD zinc f ingers were introduced into the same modif ied SUMO tagged plasmid whereas single bromodomains were f urther subcloned into pET28 derived expression vectors, pNIC28- Bsa4 using ligation independent […]
Protein Expression and Purification […]
(§2) competent BL21(DE3) Rosetta cells (Invitrogen) or into BL21 (DE3)-R3-pRARE2 cells (phage- resistant derivative with a pRARE plasmid encoding rare codon tRNAs). Cells were grown at 37 °C in Terrific Broth (Sigma) from overnight cultures until A600 reached between 0.6- 0.8, then the media was cooled and 0.2 mM isopropyl-β-Dthiogalactopyranoside (IPTG) was added to induce the protein expression at 20 °C f or 16 hours. An extra 0.1 mM ZnCl 2 was added in the protein expression to those targets that contained a PHD zinc f inger.
Different purification procedures have been optimized for each target protein. In common, E. coli overexpressed cells were lysed using an EmulsiFlex-C5 hig h-pr es s ure homogenizer (Avestin - Mannheim, Germany) or high -pressure cell disruption (Constant Systems Limited) in loading buffer A from the nickel affinity column (HisTrap Chelating FF 5ml) in the presence of Protease Inhibitor Cocktail EDTA-free (Roche). […]
on a Beckman Coulter Avanti J-20 XP centrif uge). After centrif ugation, the supernatant was loaded onto the nickel column and eluted in an imidazole linear gradient. The
On the technique in general: In ITC the heat of successive injections is recorded.

The next test has as its target T2, BAZ2B BRD (Homo sapiens, UniProt Q9UIF8).
T2 construct: 2054- 2168 f or BAZ2B) regions; hexa-histidine (pNIC28-Bsa4, TEV site) (N, cleaved yes); made in house; host or cells: E. coli BL21(DE3) Rosetta or BL21(DE3)-R3-pRARE2
T2 sequence (Q9UIF8 2054-2168): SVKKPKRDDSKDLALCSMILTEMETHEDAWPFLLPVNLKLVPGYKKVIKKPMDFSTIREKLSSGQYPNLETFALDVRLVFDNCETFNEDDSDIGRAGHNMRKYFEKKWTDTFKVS
The test can be described thus: ITC, histone peptide binding to BAZ2B BRD. The note with it: 20 mM HEPES (pH 7.5–8), 150 mM NaCl, 0.5 mM TCEP, 293 or 298 K. The protocol: (§3) All calorimetric experiments were performed on an ITC200 or VP-ITC microcalorimeters (MicroCal). Protein solutions were buffer exchanged by gel filtration into buffer (20 mM HEPES [pH 8], 150 mM NaCl, 0.5 mM Tris [2-carboxyethyl]phosphine [TCEP]), and lyophilized histone peptides were dissolved in the same buffer. All measurements were carried out at 293 or 298 K. Protein solutions (60–120 μM) in the calorimetric cell were titrated with the peptide solutions (800–1,500 μM) in the syringe. The data were analyzed with the MicroCal ORIGIN software package using, in most cases, a single binding site model. The first data point was excluded from the analysis. […]
as §1
GeneBank: Q9UIF8) were synthesized by GenScript with codons optimized f or E. coli. expression and were subcloned into a modif ied pET15 vector using NdeI/XhoI sites f or expression as recombinant proteins with a His6 tag fused with small ubiquitin like modifier (SUMO)-1 fusion tag at the N terminus. cDNA sequences were used as a template to amplify single PHD zinc fingers (residues 1673- 1728 for TIP5; residues 2054- 2168 f or BAZ2B) regions. Single PHD zinc f ingers were introduced into the same modif ied SUMO tagged plasmid whereas single bromodomains were f urther subcloned into pET28 derived expression vectors, pNIC28- Bsa4 using ligation independent cloning (Stols et al., 2002).
Protein Expression and Purification
as §2, with “Best expression constructs encoding all target proteins were transformed into E. coli competent” for “competent”
Different purification procedures have been optimized for each target protein. In common, E. coli overexpressed cells were lysed using an EmulsiFlex-C5 hig h-pr es s ure homogenizer (Avestin - Mannheim, Germany) or high -pressure cell disruption (Constant Systems Limited) in loading buffer A from the nickel affinity column (HisTrap Chelating FF 5ml) in the presence of Protease Inhibitor Cocktail EDTA-free (Roche).
Lysates were cleared by centrif ugation (14,000 x g f or 45m in at 4 °C, JLA 16.250 rotor, on a Beckman Coulter Avanti J-20 XP centrif uge). After centrif ugation, the supernatant was loaded onto the nickel column and eluted in an imidazole linear gradient. The

In the next test the test system is BAZ2 BRD. Also on record: method as in Structural Genomics Consortium [SGC] website. The note with it: ref Structural Genomics Consortium [SGC] website; cited from earlier work.
Another test deals with T3, BAZ2B PHD (Homo sapiens, UniProt Q9UIF8).
T3 construct: 1928- 1983 for BAZ2B) and bromodomains; His6-SUMO (N, cleaved yes); made in house; host or cells: E. coli BL21(DE3) Rosetta or BL21(DE3)-R3-pRARE2
T3 sequence (Q9UIF8 1928-1983): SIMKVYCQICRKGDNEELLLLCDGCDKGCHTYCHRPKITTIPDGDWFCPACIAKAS
The test can be described thus: ITC, histone peptide binding to BAZ2B PHD. The note with it: 20 mM HEPES (pH 7.5–8), 150 mM NaCl, 0.5 mM TCEP, 293 or 298 K, protein 60–120 μM in cell, peptide 800–1,500 μM in syringe, ± error of nonlinear least-squares fit. The protocol:
as §3, §1
(§4) GeneBank: Q9UIF8) were synthesized by GenScript with codons optimized f or E. coli. expression and were subcloned into a modif ied pET15 vector using NdeI/XhoI sites f or expression as recombinant proteins with a His6 tag fused with small ubiquitin like modifier (SUMO)-1 fusion tag at the N terminus. cDNA sequences were used as a template to amplify single PHD zinc fingers (residues 1673- 1728 for TIP5; residues 2054- 2168 f or BAZ2B) regions. […]

The target in another test is T4, TIP5 PHD (Homo sapiens, UniProt Q9UIF9).
T4 construct: single PHD zinc fingers (residues 1673- 1728 for TIP5); residues; His6-SUMO (N, cleaved yes); made in house; host or cells: E. coli BL21(DE3) Rosetta or BL21(DE3)-R3-pRARE2
T4 sequence (Q9UIF9 1673-1728): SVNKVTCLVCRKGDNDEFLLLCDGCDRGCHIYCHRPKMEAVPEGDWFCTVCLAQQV
The experiment in a line: ITC, histone peptide binding to TIP5 PHD. The note with it: 20 mM HEPES (pH 7.5–8), 150 mM NaCl, 0.5 mM TCEP, 293 or 298 K, protein 60–120 μM in cell, peptide 800–1,500 μM in syringe, ± error of nonlinear least-squares fit. The protocol: as §3, §1, §4

A further test concerns the target T5, TIP5 PHD-BRD (Homo sapiens, UniProt Q9UIF9).
T5 construct: (residues 1673– 1901, UniProt: Q9UIF9); His6-SUMO (N, cleaved yes); made in house; host or cells: E. coli BL21(DE3) Rosetta or BL21(DE3)-R3-pRARE2
T5 sequence (Q9UIF9 1673-1901): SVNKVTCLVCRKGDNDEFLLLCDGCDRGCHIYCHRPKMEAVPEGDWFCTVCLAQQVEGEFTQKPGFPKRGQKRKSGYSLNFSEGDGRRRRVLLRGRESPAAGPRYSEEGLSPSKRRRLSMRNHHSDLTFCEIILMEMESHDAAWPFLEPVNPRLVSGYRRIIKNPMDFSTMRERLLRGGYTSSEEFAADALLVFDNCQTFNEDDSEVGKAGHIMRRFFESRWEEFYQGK
The experiment in a line: ITC, histone peptide binding to tandem TIP5 PHD-BRD. The note with it: 20 mM HEPES (pH 7.5–8), 150 mM NaCl, 0.5 mM TCEP, 293 or 298 K, protein 60–120 μM in cell, peptide 800–1,500 μM in syringe, ± error of nonlinear least-squares fit. How it is done:
as §3, §1, §4

In a further test the target is T6, BAZ2B PHD-BRD (Homo sapiens, UniProt Q9UIF8).
T6 construct: human BAZ2B (residues 1928-2168,; His6-SUMO (N, cleaved yes); made in house; host or cells: E. coli BL21(DE3) Rosetta or BL21(DE3)-R3-pRARE2
T6 sequence (Q9UIF8 1928-2168): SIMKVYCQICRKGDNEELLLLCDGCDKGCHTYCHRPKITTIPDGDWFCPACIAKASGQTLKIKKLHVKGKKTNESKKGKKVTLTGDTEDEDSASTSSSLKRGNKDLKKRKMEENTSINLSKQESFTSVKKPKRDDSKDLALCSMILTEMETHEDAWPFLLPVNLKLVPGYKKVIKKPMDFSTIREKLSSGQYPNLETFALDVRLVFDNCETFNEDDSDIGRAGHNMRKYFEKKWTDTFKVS
The experiment in a line: ITC, histone peptide binding to tandem BAZ2B PHD-BRD. The note with it: 20 mM HEPES (pH 7.5–8), 150 mM NaCl, 0.5 mM TCEP, 293 or 298 K, protein 60–120 μM in cell, peptide 800–1,500 μM in syringe, ± error of nonlinear least-squares fit. The protocol:
as §3, §1, §4

The mark [1] stands for this setting: ITC, protein 60–120 μM in cell, peptide 800–1,500 μM in syringe, ± error of nonlinear least-squares fit.

Consider GAK(Ac)RHRKVL [H4(14–22)K16ac], for which the N on TIP5 BRD (ITC stoichiometry, ± fit error) worked out at 1.186 ± 0.015; at BAZ2B BRD (ITC stoichiometry, ± fit error), 1.062 ± 0.064. Further, the TΔS on TIP5 BRD (ITC) was -27.33 kJ/mol; at TIP5 BRD (ITC, listed as H4(14-22)K16ac), -27.33 kJ/mol; at BAZ2B BRD (ITC), 12.51 kJ/mol. The ΔG was -25.97 kJ/mol at TIP5 BRD (ITC); -25.97 kJ/mol at TIP5 BRD (ITC, listed as H4(14-22)K16ac); -24.3 kJ/mol on BAZ2B BRD (ITC). Besides, the ΔH is -53.304 ± 0.946 kJ/mol at TIP5 BRD (ITC, ± fit error); -53.304 ± 0.946 kJ/mol at TIP5 BRD (ITC, ± fit error, listed as H4(14-22)K16ac); -11.8 ± 0.933 kJ/mol on BAZ2B BRD (ITC, ± fit error).

At TIP5 BRD (setting [1]), GGK(Ac)GLGK(Ac)G [H4(6–13)K8acK12ac] returned a Kd of 63.25 ± 0.11 µM.

On to `CCCOc1ccn2c(C(C)=O)cc(-c3ccccc3S(C)(=O)=O)c2c1` [GSK2801], for which the potency/selectivity in words result with BAZ2 BRD was “selective nanomolar”.

With `CNCCCC[C@H](NC(=O)[C@@H](NC(=O)[C@H](CCCNC(=N)N)NC(=O)[C@H](C)N)[C@@H](C)O)C(=O)N[C@@H](CCC(N)=O)C(=O)N[C@H](C(=O)N[C@@H](C)C(=O)N[C@@H](CCCNC(=N)N)C(=O)N[C@@H](CCCCN)C(=O)O)[C@@H](C)O` [H3(1–9)K4me], the dissociation constant Kd at BAZ2B PHD came out at 3.98 ± 0.61 µM; at TIP5 PHD it was 2.5 ± 0.43 µM.

For the molecule `CC(=O)NCCCC[C@H](NC(=O)CNC(=O)CNC(=O)[C@@H](NC(=O)[C@H](CO)NC(=O)[C@H](CCCCN)NC(=O)[C@H](CCCNC(=N)N)NC(=O)[C@H](C)NC(=O)[C@@H](NC(=O)[C@H](CCC(N)=O)NC(=O)[C@H](CCCCN)NC(=O)[C@@H](NC(=O)[C@H](CCCNC(=N)N)NC(=O)[C@H](C)N)[C@@H](C)O)[C@@H](C)O)[C@@H](C)O)C(=O)N[C@@H](C)C(=O)N1CCC[C@H]1C(=O)N[C@@H](CCCNC(=N)N)C(=O)N[C@@H](CCCCN)C(=O)O` [H3(1–18)K14ac], the Kd amounted to 1.87 ± 0.29 µM at TIP5 PHD-BRD and 2.33 ± 0.19 µM at BAZ2B PHD-BRD.

For “Lys-Ser-Thr-Gly-Gly-Kac-Ala-Pro-Ala-Gln [H3(9-19)K14ac [R17A], mutated H3K14ac peptide, R17 to A17]”, at BAZ2B BRD (setting [1]), the KD result is given as “no binding”.

Consider `C[C@H](N)C(=O)N[C@@H](CCCNC(=N)N)C(=O)N[C@H](C(=O)N[C@@H](CCCCN)C(=O)N[C@@H](CCC(N)=O)C(=O)N[C@H](C(=O)N[C@@H](C)C(=O)N[C@@H](CCCNC(=N)N)C(=O)N[C@@H](CCCCN)C(=O)O)[C@@H](C)O)[C@@H](C)O` [H3(1–9)], for which the figures for the Kd on BAZ2B PHD and at TIP5 PHD were 3.07 ± 0.71 µM and 2.51 ± 0.63 µM, respectively.

Regarding GAK(Ac)RHRK(Ac)VL [H4(14–22)K16acK20ac], the figures for the dissociation constant Kd at TIP5 BRD (setting [1]) and at BAZ2B BRD (setting [1]) were 26.1 ± 0.37 µM and 42.41 ± 0.42 µM, respectively.

Turning to “Gly-Ala-Kac-Arg-His-Ala-Lys-Val-Leu [H4(14-22)K16ac [R19A], mutated H4K16ac peptide, R19 to A19]”, the KD result at TIP5 BRD (setting [1]) is recorded as “no binding”.
